# Columns and labels:
# [1] = Polarographic study of the oxidation potential; type: physicochemical; conditions: acetonitrile, 0.1 M lithium perchlorate, vitrous carbon electrode, calomel reference
# Excerpt: By a polarographic study of their oxidation potential, compared to well-known antioxidants such as 2,6-diterbutyl-4-methyl-phenol, 2-terbutyl-4-methoxy-phenol, 4-methoxy-phenol and hydroquinone.
# Reference electrode: Calomel electrode containing a saturated solution of anhydrous lithium perchlorate as bridge liquid.
# Working electrode: Vitrous carbon rotating electrode (2,500 r.p.m.)
# Counter-electrode: Platinum electrode
# Acetonitrile containing less than 0.1% of water and presenting no polarographic waves between -2.5 V and +2.5 V.
# Anhydrous lithium perchlorate containing less than 1% of water.
# A 0.1 M solution of lithium perchlorate in acetonitrile, treated and preserved on a 4 A molecular sieve.
# Amplitude of exploration: 0 to 2 V
# Speed of exploration: 10 mV/second
# Sensitivity: 1.25 μA to 50 μA
# Mean concentration: about 0.3×10^-3 mol/liter
# Between each measurement, the vitrous carbon electrode and the platinum electrode were carefully cleaned with Joseph paper.
# [2] = Comparison with stabilizer G1, rigid co-polymer (12.5 to 13.5% of acetate), 0.5 part, 185° C.
# Excerpt: Another comparison was made with the following rigid co-polymer: […]
# [3] = Photostabilizing power, tetrahydrofuran solution of plates exposed to the sun, French Pharmacopeia
# Protocol: (§1) The photostabilizing power of the compounds of the invention was studied by exposing to the sun polyvinyl chloride plates which had been stabilized either by a dihydropyridine of the invention or by 2-phenyl-indole, or again by 2-(3'-methoxy-4'-hydroxy)-indole. This last product is an extremely valuable thermostabilizer for thermoplastic resins and is described in British Pat. No. 1,489,685.
# (§2) The resin given hereunder was prepared by mixing on cylinders at 160° C.:
# (§3) The plates of stabilized polyvinyl chloride, together with a plate which had not been stabilized, were stood in the sun under the same conditions and at the same time. Their colour was measured after 6 hours and 12 hours of exposure.
# (§4) The coloration of the plates was determined according to two methods:
# On a solution of these plates in tetrahydrofuran, the coloration of th solution being measured according to the French Pharmacopeia (IXth edition, II-338).
# [4] = Photostabilizing power, PVC plates exposed to the sun, GARDNER scale
# Protocol: as §1, §2, §3, §4
# On the plates themselves, following the GARDNER scale, as in the section on thermostability,
# The sign + means that the coloration lies between the lower unit and the upper half-unit. Thus, 3+ means that the coloration lies between 3 and 3.5. Similarly, the sign - means that the coloration lies between the lower half-unit and the upper unit.
# [5] = Static thermostability (GARDNER method), rigid PVC sheets, 185° C., 0.3 part stabilizer
# Protocol: (§5) This study was carried out according to the GARDNER method, described in British Pat. No. 1,489,685.
# (§6) The reference substance was 2-phenyl-indole, a well-known and widely used stabilizer.
# (§7) The stabilizer (dihydropyridine or 2-phenyl-indole) and the other usual ingredients were mixed with powdered vinyl resins and the mixtures were calendered at a temperature of 160° C. to give rigid sheets.
# (§8) The sheets were then heated in a thermostated oven (185° C. or 210° C.) for different intervals of time until incipient carbonization.
# (§9) The coloration of the samples was compared to a standard scale of coloration, known as the GARDNER scale and was expressed in terms of the reference figures of the GARDNER scale.
# (§10) This study was carried out with the following resin:
# (§11) Polyvinyl chloride resin
# (§12) SL 2016 is a solution of zinc-2-ethyl-hexanoate in a mixture of hydrocarbons boiling between 158° C. and 184° C.
# A second trial was performed at a temperature of 185° C., with a resin containing 0.3 part of stabilizer, the samples being removed from the oven every 6 minutes over a period of 24 minutes, then every 3 minutes until the 42nd minute (or until carbonization).
# [6] = Comparison with stabilizer G1, rigid co-polymer, 0.5 part, 185° C.
# Excerpt: (b) Comparison with stabilizer G1
# Stabilizer G1 is a mixture of 1,4-butanediol-β-aminocrotonate and of β-aminocrotonate of alcohols containing from 16 to 18 carbon atoms.
# [7] = Comparison with stabilizer G1, 0.1 part, 185° C.
# Protocol: A test was also carried out with the following compound:
# Another test was made with the same resin but containing 0.1 part of stabilizer.
# [8] = Static thermostability (GARDNER method), rigid PVC sheets, 210° C., 0.3 part stabilizer
# Protocol: as §5, §6, §7, §8, §9, §10, §11, §12
# The first trial was carried out at 210° C. with a resin containing 0.3 part by weight of stabilizer, the sheets being removed from the oven every three minutes over a period of 21 minutes.
# [9] = Thermostability, rigid co-polymer (d), ventilated oven 210° C.; conditions: 0.3 part
# Protocol: (§13) The study of the static thermostability of vinyl co-polymers was carried out according to the GARDNER method described above and, also in a more detailed manner in British Patent No. 1,489,685.
# (d) Rigid co-polymer vinyl chloride-vinylidene chloride
# (§14) The following compound was prepared:
# The sheets were heated in a ventilated oven at 210° C.
# [10] = Thermostability, flexible co-polymer (c), Metrastat oven 160° C.; conditions: 0.3 part
# Protocol: as §13
# (c) Flexible co-polymer vinyl chloride-vinyl acetate
# as §14
# The sheets were heated in a Metrastat oven at 160° C. and the following results were obtained: […]
# [11] = Photostabilizing power, sheets exposed to the sun, rigid co-polymer (b)
# Protocol: (§15) The sheets were exposed to the sun and their colorations were also determined according to the GARDNER method.
# [12] = Comparison with 1,4-butanediol-β-aminocrotonate and methyl-β-aminocrotonate, rigid co-polymer, 185° C.; conditions: 0.5 part
# Protocol: (a) Comparison with 1,4-butanediol-β-aminocrotonate and with methyl-β-aminocrotonate.
# The following rigid co-polymer was prepared:
# (§16) The sheets were heated in a ventilated oven at 185° C. and the following results were obtained: […]
# [13] = Comparison with 2-phenyl-indole, vinyl chloride-vinylidene chloride co-polymer, 210° C.; conditions: 0.3 part
# Protocol: A second test was made using the following compound:
# The sheets were heated in a ventilated oven at 210° C. and the following results were obtained: […]
# [14] = Static thermostability (GARDNER), rigid co-polymer, 185° C.; conditions: for coloration, GARDNER scale: 0.1 part
# Protocol: as §13
# (a) Rigid co-polymer vinyl chloride-vinyl acetate
# as §14, §16
# [15] = Thermostability, flexible co-polymer (b), Metrastat oven 160° C.; conditions: 0.2 part
# Protocol: as §13
# (b) Flexible co-polymer vinyl chloride-vinyl acetate.
# as §14
# The resin was allowed to gel for 5 minutes at 120° C. and the sheets were heated at 160° C. in a Metrastat oven.
# [16] = Photostabilizing power, sheets exposed to the sun, co-polymer (a)
# Protocol: as §15
# [17] = Comparison with stabilizer G1, 0.3 part, 185° C.
compound,measurement,setting,value
COc1ccc(O)cc1 [4-Methoxy-phenol],Oxidation potential,[1],0.89 ± 0.01 volts
Oc1ccc(O)cc1 [Hydroquinone],Oxidation potential,[1],0.83 ± 0.01 volts
"C#CCOC(=O)C1=C(C)NC(C)=C(C(=O)OCC#C)C1 [Compound 2, 2,6-Dimethyl-3,5-dicarbopropargyloxy-1,4-dihydropyridine]","coloration, GARDNER scale",[2]; 0 min,1
same,"coloration, GARDNER scale",[2]; 2 min,1
same,"coloration, GARDNER scale",[2]; 4 min,2
same,"coloration, GARDNER scale",[2]; 6 min,3
same,"coloration, GARDNER scale",[2]; 10 min,8.5
same,"coloration, GARDNER scale",[2]; 12 min,13
same,"coloration, GARDNER scale",[2]; 14 min,17
same,"coloration, GARDNER scale","[2]; column without printed time, between 6 and 10 min",4
same,Coloration of the plates FRENCH PHARMACOPEIA,[3]; exposure to sun 0,JV6
same,Coloration of the plates FRENCH PHARMACOPEIA,[3]; exposure to sun 6h,JV6
same,Coloration of the plates FRENCH PHARMACOPEIA,[3]; exposure to sun 12h,JV5
same,Coloration of the plates GARDNER,[4]; exposure to sun 0,1
same,Coloration of the plates GARDNER,[4]; exposure to sun 6h,1
same,Coloration of the plates GARDNER,[4]; exposure to sun 12h,1.5
same,Oxidation potential,[1],0.80 ± 0.01 volts
same,"coloration, GARDNER scale",[5]; 0 min,1
same,"coloration, GARDNER scale",[5]; 6 min,1
same,"coloration, GARDNER scale",[5]; 12 min,2
same,"coloration, GARDNER scale",[5]; 18 min,4
same,"coloration, GARDNER scale",[5]; 24 min,6
same,"coloration, GARDNER scale",[5]; 27 min,7
same,"coloration, GARDNER scale",[5]; 30 min,8.5
same,"coloration, GARDNER scale",[5]; 33 min,9
same,"coloration, GARDNER scale",[5]; 36 min,10.5
same,"coloration, GARDNER scale",[5]; 39 min,12
same,"coloration, GARDNER scale",[5]; 42 min,18
same,"coloration, GARDNER scale",[6]; 0 min,1
same,"coloration, GARDNER scale",[6]; 2 min,1
same,"coloration, GARDNER scale",[6]; 4 min,1.5
same,"coloration, GARDNER scale",[6]; 6 min,5
same,"coloration, GARDNER scale",[6]; 8 min,10
same,"coloration, GARDNER scale",[6]; 10 min,12
same,"coloration, GARDNER scale",[6]; 12 min,16
same,"coloration, GARDNER scale",[7]; 0 min,1
same,"coloration, GARDNER scale",[7]; 2 min,1
same,"coloration, GARDNER scale",[7]; 4 min,2
same,"coloration, GARDNER scale",[7]; 6 min,4
same,"coloration, GARDNER scale",[7]; 8 min,8
same,"coloration, GARDNER scale",[7]; 10 min,10
same,"coloration, GARDNER scale",[7]; 12 min,12
same,"coloration, GARDNER scale",[7]; 14 min,13
same,"coloration, GARDNER scale",[8]; 0 min,1
same,"coloration of the resins, in words",[8]; 0 to 3 minutes,considerably less
same,"coloration, GARDNER scale",[8]; 3 min,1
same,"thermostabilizing power compared to 2-phenyl-indole, in words",[8]; 210° C.,greatly superior to 2-phenyl-indole
same,"coloration, GARDNER scale",[8]; 6 min,1
same,"coloration, GARDNER scale",[8]; 9 min,4
same,"coloration, GARDNER scale",[8]; 12 min,8
same,"coloration, GARDNER scale",[8]; 15 min,12
same,"coloration, GARDNER scale",[8]; 18 min,Burnt
COc1ccc(O)c(C(C)(C)C)c1 [2-Terbutyl-4-methoxy-phenol],Oxidation potential,[1],0.81 ± 0.01 volts
CC1=C(C(=O)OCCOc2ccccc2)CC(C(=O)OCCOc2ccccc2)=C(C)N1 [Compound 28],"coloration, GARDNER scale",[9]; 0 min,1.5
same,"coloration, GARDNER scale",[9]; 3 min,2
same,"coloration, GARDNER scale",[9]; 6 min,3
same,"coloration, GARDNER scale",[9]; 9 min,3.5
same,"coloration, GARDNER scale",[9]; 12 min,7
same,"coloration, GARDNER scale",[9]; 15 min,15
same,"coloration, GARDNER scale",[10]; 0 min,1
same,"coloration, GARDNER scale",[10]; 10 min,1
same,"coloration, GARDNER scale",[10]; 20 min,2
same,"coloration, GARDNER scale",[10]; 30 min,5
same,"coloration, GARDNER scale",[10]; 40 min,7
same,"coloration, GARDNER scale",[10]; 50 min,10
same,"coloration, GARDNER scale",[10]; 60 min,12
same,Colour in GARDNER degrees,[11]; After 24 hours,3.5 GARDNER degrees
same,Colour in GARDNER degrees,[11]; Time 0,1.5 GARDNER degrees
same,"coloration, GARDNER scale",[12]; 0 min,1
same,"coloration, GARDNER scale",[12]; 2 min,1
same,"coloration, GARDNER scale",[12]; 4 min,5
same,"coloration, GARDNER scale",[12]; 6 min,7
same,"coloration, GARDNER scale",[12]; 8 min,11
same,"coloration, GARDNER scale",[12]; 10 min,13
same,"coloration, GARDNER scale",[12]; 12 min,17
same,"coloration, GARDNER scale",[13]; 0 min,1.5
same,"coloration, GARDNER scale",[13]; 3 min,2
same,"coloration, GARDNER scale",[13]; 6 min,3
same,"coloration, GARDNER scale",[13]; 9 min,3.5
same,"coloration, GARDNER scale",[13]; 12 min,7
same,"coloration, GARDNER scale",[13]; 15 min,15
same,"thermostabilizing properties, in words",[14],clearly show the thermostabilizing properties
same,"coloration, GARDNER scale",[14]; 0 min,1
same,"coloration, GARDNER scale",[14]; 2 min,1
same,"coloration, GARDNER scale",[14]; 4 min,4
same,"coloration, GARDNER scale",[14]; 6 min,10
same,"coloration, GARDNER scale",[14]; 8 min,12
same,"coloration, GARDNER scale",[14]; 10 min,13
same,"coloration, GARDNER scale",[14]; 12 min,15
same,"coloration, GARDNER scale",[14]; 14 min,17
same,"coloration, GARDNER scale",[15]; 0 min,1
same,"coloration, GARDNER scale",[15]; 30 min,2
same,"coloration, GARDNER scale",[15]; 40 min,6
same,"coloration, GARDNER scale",[15]; 50 min,12
same,"coloration, GARDNER scale",[15]; 60 min,15
same,Colour in GARDNER degrees,[16]; After 24 hours,1 GARDNER degrees
same,Colour in GARDNER degrees,[16]; Time 0,1 GARDNER degrees
same,"coloration, GARDNER scale",[17]; 0 min,1
same,"coloration, GARDNER scale",[17]; 2 min,1
same,"coloration, GARDNER scale",[17]; 4 min,2
same,"coloration, GARDNER scale",[17]; 6 min,4
same,"coloration, GARDNER scale",[17]; 8 min,5
same,"coloration, GARDNER scale",[17]; 10 min,9
same,"coloration, GARDNER scale",[17]; 12 min,11
same,"coloration, GARDNER scale",[17]; 14 min,13
same,"coloration, GARDNER scale",[8]; 0 min,1
same,"coloration, GARDNER scale",[8]; 3 min,1
same,"coloration, GARDNER scale",[8]; 6 min,1
same,"coloration, GARDNER scale",[8]; 9 min,3
same,"coloration, GARDNER scale",[8]; 12 min,4
same,"coloration, GARDNER scale",[8]; 15 min,5
same,"coloration, GARDNER scale",[8]; 18 min,10
same,"coloration, GARDNER scale",[8]; 21 min,Burnt
